Consider 27 compounds from patent US20140163026A1, “8-ETHYL-6-(ARYL)PYRIDO[2,3-D]PYRIMIDIN-7(8H)-ONES FOR THE TREATMENT OF NERVOUS SYSTEM DISORDERS AND CANCER” (Afraxis Holdings, Inc., priority 2011, published 2014).

What is called IC50 is the midpoint of a concentration-inhibition curve. A lower IC50 goes with greater potency in that assay.

Holding throughout (format): biochemical
For assay [1], the target named is PAK1 (Homo sapiens, UniProt Q13153). The experiment in a line: In vitro PAK inhibition assay (SelectScreen, Ser/Thr 19 peptide). How it is done:
(§1) Compounds are screened in 1% DMSO (final) in the well. For 10 point titrations, 3-fold serial dilutions are conducted.
(§2) All Peptide/Kinase Mixtures are diluted to a 2× working concentration in the appropriate Kinase Buffer
The 2×PAK1/Ser/Thr 19 mixture is prepared in 50 mM HEPES pH 7.5, 0.01% BRIJ-35, 10 mM MgCl2, 1 mM EGTA.
(§3) This control yields 100% cleaved peptide in the Development Reaction.
(§4) The 100% Phosphorylation Control, which consists of a synthetically phosphorylated peptide of the same sequence as the peptide substrate, is designed to allow for the calculation of percent phosphorylation.
(§5) This control is designed to produce a 10-50%* phosphorylated peptide in the Kinase Reaction.
(§6) A known inhibitor control standard curve, 10 point titration, is run for each individual kinase on the same plate as the kinase to ensure the kinase is inhibited within an expected IC50 range previously determined.
(§7) Add the following solutions to a well in a 384-well plate: • 2.5 μL of 4× Test Compound OR (100 nL 100× Test Compound plus 2.4 μL kinase buffer) • 5 μL of 2× Peptide/Kinase (PAK) Mixture • 2.5 μL of 4×ATP Solution • 2. Shake the plate for 30-seconds • 3. Incubate the PAK Kinase Reaction at room temperature for 60-minutes • 4. Add 5 μL of Development Reagent Solution to each well • 5. Shake the plate for 30-seconds • 6. Incubate the Development Reaction for 60-minutes • 7. Determine the fluorescence using a fluorescence plate reader • 8. Analyze the fluorescence data
(§8) SelectScreen® Kinase Profiling Service uses XLfit from IDBS.
(§9) The representative IC50 value with a known inhibitor for each kinase was determined at the ATP bin nearest to the ATP Km app.

The target in assay [2] is PAK2 (PAK65) (Homo sapiens, UniProt Q13177). The experiment in a line: In vitro PAK inhibition assay (SelectScreen, Ser/Thr 20 peptide). The method, then: as §1, §2
The 2×PAK2 (PAK65)/Ser/Thr 20 mixture is prepared in 50 mM HEPES pH 7.5, 0.01% BRIJ-35, 10 mM MgCl2, 1 mM EGTA. The final 10 μL Kinase Reaction consists of 0.29-6 ng PAK2 (PAK65) and 2 μM Ser/Thr 20 in 50 mM HEPES pH 7.5, 0.01% BRIJ-35, 10 mM MgCl2, 1 mM EGTA.
as §3, §4, §5, §6, §7, §8, §9

For assay [3], the target named is PAK3 (Homo sapiens, UniProt O75914). The description is as above. How it is done:
as §1, §2
The 2×PAK3/Ser/Thr 20 mixture is prepared in 50 mM HEPES pH 7.5, 0.01% BRIJ-35, 10 mM MgCl2, 1 mM EGTA.
as §3, §4, §5, §6, §7, §8, §9

Assay [4] has as its target PAK4 (Homo sapiens, UniProt O96013). The description is as above. How it is done:
as §1, §2
The 2×PAK4/Ser/Thr 20 mixture is prepared in 50 mM HEPES pH 7.5, 0.01% BRIJ-35, 10 mM MgCl2, 1 mM EGTA. The final 10 μL Kinase Reaction consists of 0.1-0.75 ng PAK4 and 2 μM Ser/Thr 20 in 50 mM HEPES pH 7.5, 0.01% BRIJ-35, 10 mM MgCl2, 1 mM EGTA. After the 1 hour Kinase Reaction incubation, 5 μL of a 1:256 dilution of Development Reagent A is added.
as §3, §4
The minimum Emission Ratio in a screen is established by the 0% Inhibition Control, which contains active kinase. This control is designed to produce a 10-50%* phosphorylated peptide in the Kinase Reaction.
as §6
as §7, with “Bar-coded Corning, low volume NBS, black 384-well plate (Corning Cat. #3676) • 1. Add the” for “Add the”
SelectScreen® Kinase Profiling Service uses XLfit from IDBS. The dose response curve is curve fit to model number 205 (sigmoidal dose-response model).
The table below provides specifications and data around each kinase. The representative IC50 value with a known inhibitor for each kinase was determined at the ATP bin nearest to the ATP Km app.

Each structure is given as a SMILES string. A value given as a limit tells only on which side of the number the result lay.

Sequence of PAK1 (Q13153 whole entry): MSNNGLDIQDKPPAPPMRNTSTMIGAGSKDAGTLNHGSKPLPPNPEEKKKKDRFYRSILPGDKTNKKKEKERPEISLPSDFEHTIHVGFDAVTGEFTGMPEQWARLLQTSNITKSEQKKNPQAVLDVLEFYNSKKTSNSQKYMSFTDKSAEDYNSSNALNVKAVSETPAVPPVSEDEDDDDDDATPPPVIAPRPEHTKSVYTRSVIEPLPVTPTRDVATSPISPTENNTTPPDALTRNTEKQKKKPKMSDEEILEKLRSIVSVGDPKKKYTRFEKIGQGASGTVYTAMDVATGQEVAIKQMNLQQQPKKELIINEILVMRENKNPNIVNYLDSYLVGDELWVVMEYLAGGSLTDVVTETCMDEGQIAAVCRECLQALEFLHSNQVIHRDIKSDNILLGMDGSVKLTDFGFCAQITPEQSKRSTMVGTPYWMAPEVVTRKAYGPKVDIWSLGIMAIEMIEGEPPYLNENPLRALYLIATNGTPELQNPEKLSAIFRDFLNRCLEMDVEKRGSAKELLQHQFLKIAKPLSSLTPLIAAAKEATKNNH
Sequence of PAK2 (PAK65) (Q13177 whole entry): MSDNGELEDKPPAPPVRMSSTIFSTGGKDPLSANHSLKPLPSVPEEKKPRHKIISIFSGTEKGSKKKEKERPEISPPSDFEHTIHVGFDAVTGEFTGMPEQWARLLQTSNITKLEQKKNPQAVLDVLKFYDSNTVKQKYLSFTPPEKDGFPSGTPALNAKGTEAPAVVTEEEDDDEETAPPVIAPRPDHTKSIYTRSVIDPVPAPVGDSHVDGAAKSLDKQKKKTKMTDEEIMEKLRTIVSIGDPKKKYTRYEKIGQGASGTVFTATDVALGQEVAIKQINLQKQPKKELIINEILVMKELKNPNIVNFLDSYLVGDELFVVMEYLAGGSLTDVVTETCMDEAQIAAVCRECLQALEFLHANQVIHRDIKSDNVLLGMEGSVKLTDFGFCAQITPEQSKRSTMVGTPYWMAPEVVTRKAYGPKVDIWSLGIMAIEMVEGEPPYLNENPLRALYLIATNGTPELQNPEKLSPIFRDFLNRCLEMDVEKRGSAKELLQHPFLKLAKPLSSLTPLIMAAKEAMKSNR
Sequence of PAK3 (O75914 whole entry): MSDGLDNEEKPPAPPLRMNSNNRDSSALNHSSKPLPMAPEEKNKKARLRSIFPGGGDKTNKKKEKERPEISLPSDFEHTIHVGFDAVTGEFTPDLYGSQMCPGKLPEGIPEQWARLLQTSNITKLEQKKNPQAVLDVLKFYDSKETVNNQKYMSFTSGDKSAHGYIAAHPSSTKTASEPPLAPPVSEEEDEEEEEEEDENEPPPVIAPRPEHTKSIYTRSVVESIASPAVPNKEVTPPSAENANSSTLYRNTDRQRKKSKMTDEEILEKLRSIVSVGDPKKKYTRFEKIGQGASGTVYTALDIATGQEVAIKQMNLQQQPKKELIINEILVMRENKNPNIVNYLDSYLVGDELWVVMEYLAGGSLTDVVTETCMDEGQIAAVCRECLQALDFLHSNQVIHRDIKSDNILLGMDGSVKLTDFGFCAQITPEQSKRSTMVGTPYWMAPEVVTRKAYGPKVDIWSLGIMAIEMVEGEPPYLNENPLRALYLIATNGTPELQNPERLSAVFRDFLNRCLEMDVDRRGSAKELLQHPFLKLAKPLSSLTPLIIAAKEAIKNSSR
Sequence of PAK4 (O96013 whole entry): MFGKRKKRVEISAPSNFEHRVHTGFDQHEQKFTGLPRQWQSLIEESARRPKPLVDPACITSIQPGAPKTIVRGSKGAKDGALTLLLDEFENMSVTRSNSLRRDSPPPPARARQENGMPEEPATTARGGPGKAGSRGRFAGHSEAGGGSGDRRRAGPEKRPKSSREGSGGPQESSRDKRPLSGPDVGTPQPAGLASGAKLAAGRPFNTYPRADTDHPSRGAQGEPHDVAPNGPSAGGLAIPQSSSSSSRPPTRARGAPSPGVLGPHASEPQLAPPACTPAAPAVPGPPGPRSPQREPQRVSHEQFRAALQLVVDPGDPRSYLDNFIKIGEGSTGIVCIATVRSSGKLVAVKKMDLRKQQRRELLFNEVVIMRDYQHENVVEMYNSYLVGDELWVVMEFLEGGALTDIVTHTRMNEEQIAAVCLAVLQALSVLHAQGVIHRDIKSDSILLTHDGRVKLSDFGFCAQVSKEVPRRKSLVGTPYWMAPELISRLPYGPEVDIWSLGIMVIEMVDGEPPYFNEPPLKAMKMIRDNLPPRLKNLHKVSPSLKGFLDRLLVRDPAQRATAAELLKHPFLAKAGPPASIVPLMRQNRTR

In the case of `CCn1c(=O)c(-c2cc(C)c(-c3cccnc3)cc2Cl)cc2cnc(Nc3ccc(C4CCN(C)CC4)cc3)nc21`, the half-inhibitory concentration (IC50) in assay [1] is less than 50 nM; in assay [2], less than 50 nM; in assay [3], less than 50 nM; in assay [4] it was 50 to 500 nM.
As to `CCn1c(=O)c(-c2ccc(-c3noc(C)n3)cc2Cl)cc2cnc(Nc3ccc(C4CCN(C(C)C)CC4)cc3)nc21`, the IC50 in assay [1] was less than 50 nM; in assay [2] it was less than 50 nM; in assay [3], less than 50 nM; in assay [4] it was 500 to 5000 nM.
In the case of `CCn1c(=O)c(-c2ccc(-c3cccnc3C)cc2Cl)cc2cnc(Nc3ccc(C4CCN(C)CC4)cc3)nc21`, the IC50 in assay [1] is less than 50 nM; in assay [2], less than 50 nM; in assay [3] it was less than 50 nM; in assay [4] it was no less than 5000 nM.
For the compound `CCN1CCC(c2ccc(Nc3ncc4cc(-c5ccc(-c6noc(C)n6)cc5Cl)c(=O)n(CC)c4n3)cc2F)CC1`, the concentration for half-maximal inhibition (IC50) in assay [1] is less than 50 nM; in assay [2] it was less than 50 nM; in assay [3], less than 50 nM; in assay [4], no less than 5000 nM.
Consider `Cc1nc(-c2ccc(-c3cc4cnc(Nc5ccc(C6CCN(C)CC6)cc5)nc4n(C)c3=O)c(C)c2)no1`, for which the IC50 in assay [1] was less than 50 nM; in assay [2], less than 50 nM; in assay [3] it was less than 50 nM; in assay [4], no less than 5000 nM.
With `CCn1c(=O)c(-c2ccc(-c3nnn[nH]3)s2)cc2cnc(Nc3ccc(N4CCN(C)CC4)cc3)nc21`, the concentration for half-maximal inhibition (IC50) in assay [1] is greater than 5000 nM; in assay [2], greater than 5000 nM; in assay [3], greater than 5000 nM; in assay [4], no less than 5000 nM.
Take `CCn1c(=O)c(-c2ccc(-c3ccnc(C(=O)NC)c3)cc2Cl)cc2cnc(Nc3ccc(C4CCN5CCCC5C4)cc3)nc21` (stereo not drawn): the half-maximal inhibitory concentration (IC50) in assay [1] was 50 to 500 nM; in assay [2], 50 to 500 nM; in assay [3], 50 to 500 nM; in assay [4], no less than 5000 nM.
For the compound `CCn1c(=O)c(-c2ccc(-c3cncnc3)cc2Cl)cc2cnc(Nc3ccc(N4CCN(C(C)C)CC4)c(F)c3)nc21`, the IC50 in assay [1] was less than 50 nM; in assay [2] it was less than 50 nM; in assay [3] it was less than 50 nM; in assay [4], no less than 5000 nM.
For the compound `CCn1c(=O)c(-c2ccc(-c3ccc(OC)nc3)cc2)cc2cnc(Nc3ccc(N4CCN(C)CC4)cc3)nc21`, the 50% inhibitory concentration (IC50) in assay [1] is 50 to 500 nM; in assay [2], 50 to 500 nM; in assay [3] it was 50 to 500 nM; in assay [4], no less than 5000 nM.
In the case of `CCn1c(=O)c(-c2ccc(C3CC3)cc2Cl)cc2cnc(Nc3ccc(N4CCN(C)CC4)cc3)nc21`, the half-maximal inhibitory concentration (IC50) in assay [1] is 50 to 500 nM; in assay [2], 50 to 500 nM; in assay [3], 50 to 500 nM; in assay [4], no less than 5000 nM.
In the case of `CCn1c(=O)c(-c2ccc(-c3csc(C)n3)s2)cc2cnc(Nc3ccc(N4CCN(C)CC4)cc3)nc21`, the IC50 in assay [1] is greater than 5000 nM; in assay [2], greater than 5000 nM; in assay [3], greater than 5000 nM; in assay [4] it was no less than 5000 nM.
Regarding `CCn1c(=O)c(-c2ccc(-c3cccnc3F)cc2Cl)cc2cnc(Nc3ccc(C4CCNCC4)c(F)c3)nc21`, the IC50 in assay [1] was less than 50 nM; in assay [2], less than 50 nM; in assay [3], less than 50 nM; in assay [4], 500 to 5000 nM.
With `CCN1CCC(c2ccc(Nc3ncc4cc(-c5ccc(-c6cccnc6F)cc5Cl)c(=O)n(CC)c4n3)cc2)CC1`, the IC50 in assay [1] was less than 50 nM; in assay [2], less than 50 nM; in assay [3], less than 50 nM; in assay [4], 50 to 500 nM.
For `CCn1c(=O)c(-c2ccc(-c3ccncc3)s2)cc2cnc(Nc3ccc(N4CCN(C)CC4)cc3)nc21`, the 50% inhibitory concentration (IC50) in assay [1] was greater than 5000 nM; in assay [2], greater than 5000 nM; in assay [3] it was greater than 5000 nM; in assay [4], no less than 5000 nM.
In the case of `CCn1c(=O)c(-c2ccc(-c3ccnc(C(=O)NC)c3)cc2Cl)cc2cnc(Nc3ccc(C4CCNCC4)c(F)c3)nc21`, the IC50 in assay [1] is 50 to 500 nM; in assay [2], 50 to 500 nM; in assay [3], greater than 5000 nM; in assay [4] it was no less than 5000 nM.
Regarding `CCn1c(=O)c(-c2ccc(-c3cccnc3C)cc2Cl)cc2cnc(Nc3ccc(C4CCN(C)CC4)c(F)c3)nc21`, the IC50 in assay [1] was less than 50 nM; in assay [2], 50 to 500 nM; in assay [3], 50 to 500 nM; in assay [4], no less than 5000 nM.
Take `CCn1c(=O)c(-c2ccc(-c3noc(C)n3)cc2Cl)cc2cnc(Nc3ccc(C4CCNC4)cc3)nc21` (stereo not drawn): the concentration for half-maximal inhibition (IC50) in assay [1] is less than 50 nM; in assay [2], less than 50 nM; in assay [3], less than 50 nM; in assay [4], 500 to 5000 nM.
Take `CCn1c(=O)c(-c2ccc(-c3ccnc(C)c3)cc2Cl)cc2cnc(Nc3ccc(C4CCNCC4)cc3)nc21`: the IC50 in assay [1] is less than 50 nM; in assay [2], 50 to 500 nM; in assay [3], 50 to 500 nM; in assay [4], 500 to 5000 nM.
As to `CCn1c(=O)c(-c2ccc(-c3cncnc3)cc2)cc2cnc(Nc3ccc(N4CCN(C)CC4)cc3)nc21`, the concentration for half-maximal inhibition (IC50) in assay [1] is 50 to 500 nM; in assay [2] it was 50 to 500 nM; in assay [3], 500 to 5000 nM; in assay [4], no less than 5000 nM.
As to `CCn1c(=O)c(-c2ccc(-c3cc(C)ncn3)cc2Cl)cc2cnc(Nc3ccc(C4CCN(C)CC4)cc3)nc21`, the 50% inhibitory concentration (IC50) in assay [1] is less than 50 nM; in assay [2], 50 to 500 nM; in assay [3], 50 to 500 nM; in assay [4], no less than 5000 nM.
With `CNC(=O)c1cc(-c2ccc(-c3cc4cnc(Nc5ccc(C6CCNCC6)cc5)nc4n(C)c3=O)c(Cl)c2)ccn1`, the IC50 in assay [1] lay within 50 to 500 nM; in assay [2], 50 to 500 nM; in assay [3], 50 to 500 nM; in assay [4], 500 to 5000 nM.
In the case of `CCn1c(=O)c(-c2ccc(-c3cc(C)nc(C)n3)cc2Cl)cc2cnc(Nc3ccc(C4CCN(C)CC4)cc3)nc21`, the concentration for half-maximal inhibition (IC50) in assay [1] is less than 50 nM; in assay [2], less than 50 nM; in assay [3], 50 to 500 nM; in assay [4] it was no less than 5000 nM.
Consider `CCN1CCC(c2ccc(Nc3ncc4cc(-c5ccc(-c6ccc(C)nc6)cc5Cl)c(=O)n(CC)c4n3)cc2F)CC1`, for which the 50% inhibitory concentration (IC50) in assay [1] was less than 50 nM; in assay [2], less than 50 nM; in assay [3] it was 50 to 500 nM; in assay [4] it was 500 to 5000 nM.
Consider `CCn1c(=O)c(-c2ccc(-c3ncc(C)s3)cc2C)cc2cnc(Nc3ccc(C4CCN(C)CC4)cc3)nc21`, for which the IC50 in assay [1] was less than 50 nM; in assay [2] it was less than 50 nM; in assay [3], 50 to 500 nM; in assay [4] it was 500 to 5000 nM.
As to `CCn1c(=O)c(-c2ccc(-c3noc(C)n3)cc2)cc2cnc(Nc3ccc(N4CCN(C)CC4)cc3)nc21`, the IC50 in assay [1] is less than 50 nM; in assay [2], 50 to 500 nM; in assay [3] it was 50 to 500 nM; in assay [4] it was no less than 5000 nM.
Take `CCn1c(=O)c(-c2ccc(-c3cccnc3F)cc2Cl)cc2cnc(Nc3ccc(CCN4CCCC4)cc3)nc21`: the IC50 was less than 50 nM in assay [1], less than 50 nM in assay [2], less than 50 nM in assay [3] and 50 to 500 nM in assay [4].
Regarding `CCn1c(=O)c(-c2ccc(-c3ccoc3)cc2)cc2cnc(Nc3ccc(N4CCN(C)CC4)cc3)nc21`, the concentration for half-maximal inhibition (IC50) was 50 to 500 nM in assay [1], greater than 5000 nM in assay [2], greater than 5000 nM in assay [3] and no less than 5000 nM in assay [4].
